Results: PubChem BioAssay (NCI)
Values joined by “and” are separate entries in the source; they are usually repeats but may differ in a detail not shown here. Identical values can stand only once.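 Briefly, cells in 96-well plates were exposed to five compound concentrations for 48 h, and endpoints were estimated by linear interpolation. Abbreviation: GI50, concentration required for 50% inhibition of growth. Definition used: TGI = concentration required for complete inhibition of growth.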

Legend:
Assay in all cases: DTP human tumour cell line panel, 48 h
KM12 colon = test system: KM12 colon
A549 NSCLC = test system: A549 NSCLC
T-47D breast = test system: T-47D breast
RPMI-8226 leukemia = test system: RPMI-8226 leukemia
BT-549 breast = test system: BT-549 breast
SNB-19 CNS = test system: SNB-19 CNS
NCI-H522 lung = test system: NCI-H522 lung
A498 renal = test system: A498 renal
SR leukemia = test system: SR leukemia
HOP-62 NSCLC = test system: HOP-62 NSCLC

Structure (SMILES)	GI50 (KM12 colon)	TGI (KM12 colon)	GI50 (A549 NSCLC)	TGI (A549 NSCLC)	GI50 (T-47D breast)	TGI (T-47D breast) [µM]	GI50 (RPMI-8226 leukemia) [µM]	TGI (RPMI-8226 leukemia) [µM]	GI50 (BT-549 breast)	TGI (BT-549 breast)	GI50 (SNB-19 CNS)	TGI (SNB-19 CNS) [µM]	GI50 (NCI-H522 lung)	TGI (NCI-H522 lung)	GI50 (A498 renal)	TGI (A498 renal)	GI50 (SR leukemia) [µM]	TGI (SR leukemia) [µM]	GI50 (HOP-62 NSCLC)	TGI (HOP-62 NSCLC)
Cc1cn(-c2cc(NC(=O)c3cccc(C#Cc4cccc5[nH]nc(N)c45)c3)cc(C(F)(F)F)c2)cn1	1.29 µM	> 100 µM	10.4 µM	35.2 µM	3.39 µM	18.5	4.54	> 100	5.21 µM	80.4 µM	8.14 µM	32.7	5.48 µM	49 µM	4.09 µM	82.4 µM	5.06	> 100	3.99 µM	18.3 µM
C=C(C)[C@@H]1CC[C@]2(COCCCN)CC[C@]3(C)[C@H](CC[C@@H]4[C@@](C)(CCCNCCCN)[C@H](C(=C)C)CC[C@]43C)[C@@H]12	1.74 µM	3.14 µM	1.89 µM	3.63 µM	1.78 µM	3.63	2.2	5.08	10.6 µM	29.6 µM	1.84 µM	3.56	1.88 µM	3.78 µM	14.5 µM	37.1 µM	1.32	3.59	1.66 µM	3.25 µM
O=NNc1ccc2ccccc2n1		> 100 µM		> 100 µM		> 100		> 100		> 100 µM		> 100		> 100 µM		> 100 µM		> 100		> 100 µM
CC(C)C(O)(C(C)C)C(C)C		> 100 µM		> 100 µM		> 100		> 100		> 100 µM		> 100		> 100 µM		> 100 µM		> 100		> 100 µM
O=C(Oc1ccc[nH]c1=O)c1cc([N+](=O)[O-])cc([N+](=O)[O-])c1	36.3 µM	> 100 µM	> 100 µM	> 100 µM	73.2 µM	> 100	> 100	> 100	> 100 µM	> 100 µM	> 100 µM	> 100	> 100 µM	> 100 µM	> 100 µM	> 100 µM	74.8	> 100	> 100 µM	> 100 µM
O=C(O)CCCc1ccc2ccc3ccccc3c2c1		> 100 µM		> 100 µM		> 100		> 100		> 100 µM		> 100		> 100 µM		> 100 µM		> 100		> 100 µM
CNC(=O)OCc1nc(SSC(C)(C)C)n(C)c1COC(=O)NC		38.8 µM		28 µM		7.4		8.92		2.83 µM		33.9		2.69 µM		20.4 µM		5.54		31.1 µM
O=C(NC(=O)c1c(F)cccc1F)Nc1cccc(Oc2ncc(Cl)cn2)c1		> 100 µM		> 100 µM		> 100		> 100		> 100 µM		> 86.3		> 100 µM		> 100 µM		> 73.8		73.6 µM
Cc1cc(N(CC(C)Br)CC(C)Br)ccc1N=Nc1ccccc1C(=O)O (stereo unspecified)		27.4 µM		19.9 µM		5		7.24		26.5 µM		23.5		9.02 µM		3.91 µM		> 40.7		22.8 µM
N[C@H](C(=O)O)[C@@H]1CC(Cl)=NO1		> 741 µM	6.06 µM	678 µM		> 1000	11.1	811	7.4 µM	> 1000 µM	16.8 µM and 5.14 µM	> 661		271 µM	45.5 µM	> 887 µM	3.44	> 583	6.27 µM	170 µM
CCOc1cc(C(C)(C)C)ccc1C1=N[C@H](c2ccc(Cl)cc2)[C@H](c2ccc(Cl)cc2)N1C(=O)N1CCN(CC#Cc2cccc3c2CN([C@@H]2CCC(=O)NC2=O)C3=O)CC1	2.22 µM	> 100 µM	1.1 µM	> 43.1 µM	0.0431 µM	12.9	2.3	> 100	0.317 µM	19.8 µM	2.1 µM	> 58.8	6.59 µM	> 77.3 µM	0.197 µM	6.62 µM	0.642	> 100	0.115 µM	16.3 µM
O=C(/C=C/c1ccccc1)Nc1ncc(Cc2ccccc2Cl)s1	0.288 µM	> 100 µM	0.469 µM	> 100 µM	0.513 µM	> 100	0.335		0.945 µM	> 100 µM	0.404 µM	> 100	0.474 µM	> 100 µM	0.176 µM	0.68 µM	0.153	> 100	0.505 µM	> 100 µM
COc1cc(C2c3cc4c(cc3OC(C)(N3CCCC3)C2C)OCO4)cc(OC)c1OC (stereo unspecified)		9.45 µM		> 100 µM		> 100		11.7		12.2 µM		> 100		0.612 µM		5.7 µM		9.62		66.8 µM
CCN(CC)CCCC(CCl)Nc1ccnc2cc(Cl)ccc12 (stereo unspecified)	16.7 µM and 16.2 µM	34 µM and 50.6 µM	20 µM and 27 µM	55 µM and > 100 µM	49.2 µM and 34.1 µM	> 100	12.2	34.4	22.4 µM and 15.2 µM	60.2 µM and 49.1 µM	94.8 µM and > 89.7 µM	> 100	25.7 µM and 25.1 µM	67.8 µM and > 73.6 µM	24.2 µM and 22 µM	64.3 µM and 51.1 µM	0.421	3.25	25.7 µM and 28.7 µM	71.8 µM and > 100 µM
O=C1C(=O)c2ccccc2C(O)=C1C(C1=C(O)c2ccccc2C(=O)C1=O)c1ccc(Cl)cc1		25 µM		42.2 µM		> 57.7		> 39.2		32.7 µM		41.8		27.3 µM		34 µM		24.7		13.1 µM
